# Reference: patent publication US20160256510A1, “PALIURUS RAMOSISSIMUS (LOUR.) POIR EXTRACT AND PREPARATION METHOD AND USES THEREOF” (priority 2013, published 2016)
# Marks after values point to notes of the source that are not given here.
# Key:
# S180 = assay: Mice bearing S180, tumor weight and inhibition rate; format: in vivo, Kunming mice
# Procedure: (§1) Choose mice which are in good health conditions and received S180 tumor injection 8 days ago, disinfect abdominal skin, draw ascites, mix with normal saline as ratio of 1:4 (ascites volume:normal saline volume) to make suspension. […] In all groups, subcutaneously inject 0.2 ml of the aforementioned suspension at the right anterior lobe. 2 hours after injection, mice in control group and drug groups receive test substance or suspension via intragastric administration once a day for 14 consecutive days. In positive control group, CTX is administered intraperitoneally once every other day for a total of 7 times.
# as §1, with “intragastric or intravenous” for “intragastric”
# transplanted tumor S 180 = conditions: control group (positive control cyclophosphamide 85 mg/kg daily)
# Procedure: Take Kunming mice, subcutaneously inject 0.2 ml of S180 suspension (about 1×10^6 tumor cells) in a routine way at the right anterior lobe. 24 hours after injection, mice are randomly grouped and numbered. There are 10 mice in the control groups, and 10 mice each in test groups of high dose, middle dose, and low dose. Mice in each group receive drugs via intragastric administration once a day for a total of 14 times. In positive control group, cyclophosphamide (85 mg/kg) is given daily, and the dose, frequency, time are identical with the test groups.
# pulmonary fibrosis = assay: Bleomycin-induced pulmonary fibrosis in rats; format: in vivo, SD rats; conditions: lung, 30 days
# Procedure: Take 60 SD rats (200-240 g, male), randomly divide into sham operation control group (0.5% mucilage tragacanth), model control group (0.5% mucilage tragacanth), positive control group (dexamethasone, 1 mg/kg), Paliurus ramosissimus (Lour) Poir. extract (prepared according to Embodiment 1) low-dose group (0.4 g/kg), Paliurus ramosissimus (Lour) Poir. extract middle-dose group (0.8 g/kg), and Paliurus ramosissimus (Lour) Poir. extract high-dose group (1.6 g/kg) with stratification of body weight. All animals receive trachea separation under anesthesia by intraperitoneal injection of 10% chloral hydrate (350 mg/kg). Except the sham operation control group, rats in other groups receive injection of 5 mg/kg of bleomycin in 0.4 ml of normal saline solution, while rats in sham operation control group receive normal saline solution only. From the next day after surgery, test substance is given daily for 30 consecutive days. Sacrifice the animals by cervical dislocation, and take the lungs; some organs are homogenized for hydroxyproline content determination, and some are for pathological examination.
# Take 60 SD rats (200-240 g, male), randomly divide into sham operation control group, model control group, positive control group (dexamethasone, 1 mg/kg), Paliurus ramosissimus (Lour) Poir. extract group (prepared according to Embodiment 1, 0.8 g/kg. op), Ligustrazine (40 mg/kg, ip)and drug combination group (Paliurus ramosissimus (Lour) Poir. Extract 0.8 g/kg, op; Ligustrazine injection40 mg/kg, ip) with stratification of body weight. All animals receive trachea separation under anesthesia by intraperitoneal injection of 10% chloral hydrate (350 mg/kg). Except the sham operation control group, rats in other groups receive injection of 5 mg/kg of bleomycin in 0.4 ml of normal saline solution, while rats in sham operation control group receive normal saline solution only. The next day after the surgery, give the test substance via intragastric administration or injection administration, test substance is given daily for 30 consecutive days. […]
# TNBS induced colitis = assay: TNBS induced experimental colitis in rats; format: in vivo; conditions: 2 mg/kg
# Procedure: After the animals are fasted for 24 h, perform anesthesia with sodium pentobarbital. Except the sham operation group, perform coloclysis with TNBS and 40% ethanol, and replicate experimental colitis model; 6 h after model construction, administer test substance. At the day 5 of administration, draw tail vein blood and count leukocyte. At day 6, perform urethane anesthesia, draw abdominal aortic blood and sacrifice the animals by cervical dislocation. Cut 9 cm colon from the anus, in an ice bath, cut intestine along the mesenteric edge, wash out the contents, measure the ulcer area, calculate the percentage of ulcer area; weigh the colon, scrap colonic mucosa, and determine tumor necrosis factor (TNF-α) concentration with ELISA method.
# [1] = test system: experimental hepatic fibrosis; assay: Carbon tetrachloride-induced liver fibrosis in rats; format: in vivo, SD rats; conditions: 3 months
# Procedure: Take 60 SD rats (200-240 g, male), randomly divide into blank control group (0.5% mucilage tragacanth), model control group (0.5% mucilage tragacanth), positive control group (dexamethasone, 1 mg/kg), Paliurus ramosissimus (Lour) Poir. extract (prepared according to Embodiment 1) low-dose group (0.4 g/kg), Paliurus ramosissimus (Lour) Poir. extract middle-dose group (0.8 g/kg), and Paliurus ramosissimus (Lour) Poir. extract high-dose group (1.6 g/kg) with stratification of body weight. Except the blank control group, rats in other groups receive subcutaneous injection of 1 ml/kg of 40% carbon tetrachloride in vegetable oil solution, 2 times a week for 3 consecutive months, while receiving high-fat diet and 5% ethanol aqueous solution. Test substance is given via intragastric administration once daily for 3 consecutive months. On the next day after drug administration, draw abdominal aortic blood, separate plasma, determine the levels of alanine aminotransferase (ALT), III procollagen (PC-III), hyaluronic acid (HA) and laminin (LH); the sacrifice the animals, and take the liver for pathological examination.
# Take 60 SD rats (200-240 g, male), randomly divide into blank control group, model control group, positive control group (dexamethasone, 1 mg/kg), Paliurus ramosissimus (Lour) Poir. extract group (prepared according to Embodiment 1, 0.8 g/kg), Polyene phosphatidylcholine group, drug combination group (Paliurus ramosissimus (Lour.) Poir. Extract0.8 g/kg+Polyene phosphatidylcholine1 ml/kg) with stratification of body weight. Except the blank control group, rats in other groups receive subcutaneous injection of 1 ml/kg of 40% carbon tetrachloride in vegetable oil solution, 2 times a week for 3 consecutive months, while receiving high-fat diet and 5% ethanol aqueous solution. Test substance is given via intragastric administration once daily for 3 consecutive months. On the next day after drug administration, draw abdominal aortic blood, separate plasma, determine the levels of alanine aminotransferase (ALT), III procollagen (PC-III), hyaluronic acid (HA) and laminin (LH); the sacrifice the animals, and take the liver for pathological examination.
# peritoneal macrophages = assay: Peritoneal macrophage phagocytosis of normal mice; format: in vivo, KM mice; conditions: inhibition effect positive control 0.1 g/kg, one subcutaneous injection at day 13
# Procedure: Except that the mice in inhibition effect positive control group receive one dose of subcutaneous injection at day 13, mice in other groups receive test substance or suspension via intragastric administration once a day for 14 consecutive days. At day 13 and 14, apply intraperitoneal injection of 6% starch solution respectively. 1 h after the last administration at day 14, apply intraperitoneal injection of 1 ml of 5% chicken erythrocytes in saline suspension; 30 min later, sacrifice the mice by cervical dislocation, apply intraperitoneal injection of 2 ml saline, and gently massage the abdomen. 1 min later, cut open abdomen, draw 1 ml of peritoneal washings, evenly drop on two slides, place in a wet box, and incubate at 37° C. for 30 min. Rinse in saline, dry, fix with 1:1 acetone-methanol solution, stain with 4% (v/v) Giemsa-PBS for 3 min, rinse with distilled water and dry, perform microscopic examination, and calculate the percentage of phagocytosis.
# Ehrlich ascites tumor = assay: Mice bearing Ehrlich ascites tumor, survival time and ascites weight; format: in vivo, Kunming mice; conditions: 40 mg/kg intraperitoneally every other day, 7 times
# Procedure: Choose mice which are in good health conditions and received Ehrlich ascites tumor injection 8 days ago, disinfect abdominal skin, draw ascites, mix with normal saline to […] for future use. […] In all groups, subcutaneously inject 0.2 ml of the aforementioned suspension at the right anterior lobe. 2 hours after injection, mice in control group and drug groups receive test substance or suspension via intragastric administration once a day, administer continuously until the animal is dying. In positive control group, CTX is administered intraperitoneally once every other day for a total of 7 times. When the animal is dying, sacrifice it by cervical dislocation; the day of dying is calculated as survival time; after death, weigh, exhaust ascites, weigh again, and the difference is the weight of ascites.
# [2] = test system: pylorus ligation induced gastric ulcer; assay: Pylorus ligation induced experimental gastric ulcer in rats; format: in vivo; conditions: 60 mg/kg intragastric, 3 days
# Source text: (§2) In all groups, mice receive test substance via intragastric administration once a day for 3 consecutive days.
# as §2
# [3] = Table 8, 1 ml/kg once a day, 14 days
# [4] = Table 8, 5 mg/kg once a day, 14 days
# [5] = Table 11, dexamethasone 1 mg/kg
# [6] = Table 6, 40 mg/kg intraperitoneally every other day, 7 times
# [7] = Table 8, 40 mg/kg intraperitoneally every other day, 7 times
# [8] = Table 11, polyene phosphatidylcholine group (1 ml/kg in the combination)
compound,measurement,setting,value
"CC(=O)O[C@H]1[C@H]2O[C@]23[C@@H]2CC[C@]4(O)C[C@@H](O)CC[C@]4(C)[C@H]2CC[C@]3(C)[C@H]1c1ccc(=O)oc1 [Cinobufotalin, cinobufotalin]",Tumor inhibition rate (%),S180; [3],43.8%
same,Tumor weight,S180; [3],0.73 ± 0.42 g
"O=P1(N(CCCl)CCCl)NCCCO1 (stereo not shown) [Control group, cyclophosphamide]",Tumor inhibition rate,transplanted tumor S 180,38.45 ± 3.62%
Cc1nc(C)c(C)nc1C [Ligustrazine],Hydroxyproline content (mg/gpro),"pulmonary fibrosis; Table 12, 40 mg/kg ip daily",14.6 ± 5.7 mg/gpro
"CC(=O)O[C@H]1C(=O)[C@@]2(C)[C@H]([C@H](OC(=O)c3ccccc3)[C@]3(O)C[C@H](OC(=O)[C@H](O)[C@@H](NC(=O)c4ccccc4)c4ccccc4)C(C)=C1C3(C)C)[C@]1(OC(C)=O)CO[C@@H]1C[C@@H]2O [Paclitaxel, paclitaxel]",Tumor inhibition rate (%),S180; [4],34.6%
same,Tumor weight,S180; [4],0.85 ± 0.38 g
"C[C@@H]1C[C@H]2[C@@H]3CCC4=CC(=O)C=C[C@]4(C)[C@@]3(F)[C@@H](O)C[C@]2(C)[C@@]1(O)C(=O)CO [Positive Control, dexamethasone]",Hydroxyproline content (mg/gpro),"pulmonary fibrosis; Table 10, dexamethasone 1 mg/kg daily",13.6 ± 3.3 mg/gpro
same,Hydroxyproline content (mg/gpro),"pulmonary fibrosis; Table 12, dexamethasone 1 mg/kg daily",13.4 ± 3.7 mg/gpro
same,Ratio of ulcer area (%),"TNBS induced colitis; colon, day 6",28.6 ± 10.5 %
same,TNF-α (ng/gpro),"TNBS induced colitis; colonic mucosa, ELISA",73.2 ± 19.6 ng/gpro
same,Leukocyte count (10^9/L),"TNBS induced colitis; tail vein blood, day 5",8.4 ± 0.9** 10^9/L
same,ALT (U/L),"[1]; Table 9, dexamethasone 1 mg/kg",456 ± 98 U/L
same,HA,"[1]; Table 9, dexamethasone 1 mg/kg",280 ± 54 µg/L
same,LN,"[1]; Table 9, dexamethasone 1 mg/kg",62 ± 20 µg/L
same,PC-III,"[1]; Table 9, dexamethasone 1 mg/kg",20.8 ± 3.1 µg/L
same,ALT (U/L),[1]; [5],478 ± 90 U/L
same,HA,[1]; [5],285 ± 57 µg/L
same,LN,[1]; [5],65 ± 23 µg/L
same,PC-III,[1]; [5],20.6 ± 3.8 µg/L
"O=P1(N(CCCl)CCCl)NCCCO1 (stereo not shown) [ctx, cyclophosphamide]",Percentage of phagocytosis,peritoneal macrophages,0.12 ± 0.03
same,Tumor inhibition rate (%),S180; [6],70.8%
same,Tumor weight,S180; [6],0.35 ± 0.58 g
same,Tumor inhibition rate (%),S180; [7],63.1%
same,Tumor weight,S180; [7],0.48 ± 0.41 g
same,Survival time,Ehrlich ascites tumor,17.2 ± 2.3 days
same,Weight of ascites,Ehrlich ascites tumor,15.9 ± 1.5
CNC(=C[N+](=O)[O-])NCCSCc1ccc(CN(C)C)o1 [ranitidine],Ulcer index,[2]; Table 19,1.5 ± 0.4
same,Inhibition rate (%),"[2]; Table 19, ulcer",68.1%
same,Ulcer index,[2]; Table 22,1.8 ± 0.6
same,Ulcer inhibition rate (%),[2]; Table 22,60.0%
Polyene phosphatidylcholine,ALT (U/L),[1]; [8],443 ± 130 U/L
same,HA,[1]; [8],284 ± 78 µg/L
same,LN,[1]; [8],63 ± 18 µg/L
same,PC-III,[1]; [8],27.0 ± 4.8 µg/L
